Values of other authors, collected in US8476249B2, “Method of treating thrombocytopenia” (GlaxoSmithKline LLC, priority 2010, dated 2013).

Key:
[1] = in vivo
[2] = specifically in the portal vein system

Compound	occurrence of portal vein thrombosis [1]	thrombotic events [2]
enoxaparin	reducing the occurrence of portal vein thrombosis	
CC1=NN(c2ccc(C)c(C)c2)C(=O)/C1=N\Nc1cccc(-c2cccc(C(=O)O)c2)c1O.NCCO.NCCO [eltrombopag, 3′-[(2Z)-[1-(3,4-dimethylphenyl)-1,5-dihydro-3-methyl-5-oxo-4H-pyrazol-4-ylidene]hydrazino]-2′-hydroxy-[1,1′-biphenyl]-3-carboxylic acid bis-(monoethanolamine)]		associated with thrombotic events
